Source: ChEMBL document CHEMBL5512645, “A novel antimicrobial peptide with broad-spectrum and exceptional stability derived from the natural peptide Brevicidine” (Eur J Med Chem, 2024)
Activity calls are given as the source filed them. No cut-off for these calls is given here.

Legend:
[1] = tested on: Pseudomonas aeruginosa; assay: Antibacterial activity against Pseudomonas aeruginosa ATCC 27853 at sub-MIC measured after 2 days; format: functional, organism-based; settings: time 2.0 day
[2] = tested on: Staphylococcus aureus; assay: Antibacterial activity against Staphylococcus aureus ATCC 25923 at sub-MIC measured after 4 days; format: functional, organism-based; settings: time 4.0 day
[3] = tested on: Escherichia coli; assay: Antibacterial activity against Escherichia coli ATCC 25922 incubated for 18 to 24 hrs by broth microdilution method; format: functional; settings: time 18-24 hrs
[4] = tested on: Klebsiella pneumoniae; assay: Antibacterial activity against Klebsiella pneumoniae ATCC 700603 incubated for 18 to 24 hrs by broth microdilution method; format: functional; settings: time 18-24 hrs
[5] = tested on: Pseudomonas aeruginosa; assay: Antibacterial activity against Pseudomonas aeruginosa ATCC 27853 incubated for 18 to 24 hrs by broth microdilution method; format: functional; settings: time 18-24 hrs
[6] = tested on: Acinetobacter baumannii; assay: Antibacterial activity against Acinetobacter baumannii ATCC 19606 incubated for 18 to 24 hrs by broth microdilution method; format: functional; settings: time 18-24 hrs
[7] = tested on: Staphylococcus aureus; assay: Antibacterial activity against Staphylococcus aureus ATCC 25923 incubated for 18 to 24 hrs by broth microdilution method; format: functional; settings: time 18-24 hrs
[8] = tested on: Bacillus subtilis; assay: Antibacterial activity against Bacillus subtilis ATCC 23857 incubated for 18 to 24 hrs by broth microdilution method; format: functional; settings: time 18-24 hrs
[9] = tested on: Staphylococcus epidermidis; assay: Antibacterial activity against Staphylococcus epidermidis ATCC 12228 incubated for 18 to 24 hrs by broth microdilution method; format: functional; settings: time 18-24 hrs
[10] = tested on: Enterococcus faecalis; assay: Antibacterial activity against Enterococcus faecalis ATCC 29212 incubated for 18 to 24 hrs by broth microdilution method; format: functional; settings: time 18-24 hrs
[11] = tested on: Erythrocyte; assay: Hemolytic activity in mouse red blood cell assessed as hemolysis incubated for 1 hr; format: toxicity, cell-based
[12] = tested on: Staphylococcus aureus; assay: Antibacterial activity against Staphylococcus aureus ATCC 25923 assessed as fold increase in MIC pretreated with Na-cl followed by compound addition and measured after 2 hrs by broth microdilution method; format: functional
[13] = tested on: Staphylococcus aureus; assay: Antibacterial activity against Staphylococcus aureus ATCC 25923 assessed as fold increase in MIC pretreated with Zncl2 followed by compound addition and measured after 2 hrs by broth microdilution method; format: functional
[14] = tested on: Pseudomonas aeruginosa; assay: Antibacterial activity against Pseudomonas aeruginosa ATCC 27853 at sub-MIC measured after 3 days; format: functional, organism-based; settings: time 3.0 day
[15] = tested on: Staphylococcus aureus; assay: Antibacterial activity against Staphylococcus aureus ATCC 25923 at sub-MIC measured after 5 days; format: functional, organism-based; settings: time 5.0 day
[16] = Toxicity in male BALB/c mouse assessed as survival rate at 15 mg/kg, ip measured after 7 days relative to control; format: organism-based; settings: in vivo, 168 h, time 7 day
[17] = Toxicity in male BALB/c mouse assessed as survival rate at 23.8 to 30 mg/kg, ip measured within 30 mins relative to control; format: organism-based; settings: in vivo, 0.5 h, dose 23.8-30 mg/kg
[18] = Toxicity in male BALB/c mouse assessed as lethal dose administered as ip measured after 7 days; format: organism-based; settings: in vivo, ip, 168 h, time 7 day
[19] = Toxicity in male BALB/c mouse assessed as cellular infiltration in liver at 19.45 mg/kg, ip administered as single dose by H and E staining based analysis; format: organism-based; settings: in vivo
[20] = Toxicity in male BALB/c mouse assessed as hemorrhage in liver at 19.45 mg/kg, ip administered as single dose by H and E staining based analysis; format: organism-based; settings: in vivo
[21] = Toxicity in male BALB/c mouse assessed as cellular infiltration in spleen at 19.45 mg/kg, ip administered as single dose by H and E staining based analysis; format: organism-based; settings: in vivo
[22] = Toxicity in male BALB/c mouse assessed as hemorrhage in spleen at 19.45 mg/kg, ip administered as single dose by H and E staining based analysis; format: organism-based; settings: in vivo
[23] = Toxicity in male BALB/c mouse assessed as cellular infiltration in lung at 19.45 mg/kg, ip administered as single dose by H and E staining based analysis; format: organism-based; settings: in vivo
[24] = Toxicity in male BALB/c mouse assessed as hemorrhage in lung at 19.45 mg/kg, ip administered as single dose by H and E staining based analysis; format: organism-based; settings: in vivo
[25] = Toxicity in male BALB/c mouse assessed as cellular infiltration in kidney at 19.45 mg/kg, ip administered as single dose by H and E staining based analysis; format: organism-based; settings: in vivo
[26] = Toxicity in male BALB/c mouse assessed as hemorrhage in kidney at 19.45 mg/kg, ip administered as single dose by H and E staining based analysis; format: organism-based; settings: in vivo
[27] = Toxicity in male BALB/c mouse assessed as alveolar shrinkage in lung at 19.45 mg/kg, ip administered as single dose by H and E staining based analysis; format: organism-based; settings: in vivo
[28] = Toxicity in male BALB/c mouse assessed as cell necrosis in liver at 19.45 mg/kg, ip administered as single dose by H and E staining based analysis; format: organism-based; settings: in vivo
[29] = Toxicity in male BALB/c mouse assessed as massive edema in kidney at 19.45 mg/kg, ip administered as single dose by H and E staining based analysis; format: organism-based; settings: in vivo

Compound	MIC [3]	MIC [4]	MIC [5]	MIC [6]	MIC [7]	MIC [8]	MIC [9]	MIC [10]	MHC [11]	also measured
CO[C@H]1/C=C/O[C@@]2(C)Oc3c(C)c(O)c4c(O)c(c(/C=N/N5CCN(C)CC5)c(O)c4c3C2=O)NC(=O)/C(C)=C\C=C\[C@H](C)[C@H](O)[C@@H](C)[C@@H](O)[C@@H](C)[C@H](OC(C)=O)[C@@H]1C										Activity [1]: inactive; Activity [2]: inactive
CCC(C)CCC(=O)N[C@H](CC(N)=O)C(=O)N[C@H](Cc1c[nH]c2ccccc12)C(=O)N[C@H](Cc1c[nH]c2ccccc12)C(=O)N[C@H](CCCN)C(=O)N[C@@H](CCCN)C(=O)NCC(=O)N[C@H](CCCN)C(=O)N[C@@H](Cc1c[nH]c2ccccc12)C(=O)N[C@@H]1C(=O)N[C@@H]([C@@H](C)CC)C(=O)NCC(=O)N[C@@H](CO)C(=O)O[C@@H]1C (mixture of isomers)	8 µM	8 µM	4 µM	32 µM	32 µM	16 µM	32 µM	128 µM	64 µM	fold change (FC) [12]: 4; fold change (FC) [13]: 4
CCC(C)CCC(=O)N[C@H](CC(N)=O)C(=O)N[C@H](Cc1ccc(O)cc1)C(=O)N[C@H](Cc1c[nH]c2ccccc12)C(=O)N[C@H](CCCN)C(=O)N[C@@H](CCCN)C(=O)NCC(=O)N[C@H](C)C(=O)N[C@@H](Cc1c[nH]c2ccccc12)C(=O)N[C@@H]1C(=O)N[C@@H]([C@@H](C)CC)C(=O)NCC(=O)N[C@@H](CO)C(=O)O[C@@H]1C (mixture of isomers)	8 µM	16 µM	16 µM	8 µM	32 µM	16 µM	32 µM	64 µM	32 µM	
CCC(C)CCC(=O)N[C@H](CC(N)=O)C(=O)N[C@H](Cc1ccc(O)cc1)C(=O)N[C@H](Cc1c[nH]c2ccccc12)C(=O)N[C@H](CCCN)C(=O)N[C@@H](CCCN)C(=O)N[C@@H](CCCN)C(=O)N[C@H](CCCN)C(=O)N[C@@H](Cc1c[nH]c2ccccc12)C(=O)N[C@@H]1C(=O)N[C@@H]([C@@H](C)CC)C(=O)NCC(=O)N[C@@H](CO)C(=O)O[C@@H]1C (mixture of isomers)	2 µM	2 µM	1 µM	8 µM	32 µM	8 µM	16 µM	128 µM	128 µM	
CCC(C)CCC(=O)N[C@H](CC(N)=O)C(=O)N[C@H](Cc1ccc(O)cc1)C(=O)N[C@H](Cc1c[nH]c2ccccc12)C(=O)N[C@H](CCCN)C(=O)N[C@@H](C)C(=O)NCC(=O)N[C@H](CCCN)C(=O)N[C@@H](Cc1c[nH]c2ccccc12)C(=O)N[C@@H]1C(=O)N[C@@H]([C@@H](C)CC)C(=O)NCC(=O)N[C@@H](CO)C(=O)O[C@@H]1C (mixture of isomers)	8 µM	8 µM	4 µM	8 µM	32 µM	16 µM	32 µM	64 µM	64 µM	
CCC(C)CCC(=O)N[C@H](CCCN)C(=O)N[C@H](Cc1ccc(O)cc1)C(=O)N[C@H](Cc1c[nH]c2ccccc12)C(=O)N[C@H](CCCN)C(=O)N[C@@H](CCCN)C(=O)NCC(=O)N[C@H](CCCN)C(=O)N[C@@H](Cc1c[nH]c2ccccc12)C(=O)N[C@@H]1C(=O)N[C@@H]([C@@H](C)CC)C(=O)NCC(=O)N[C@@H](CO)C(=O)O[C@@H]1C (mixture of isomers)	4 µM	2 µM	1 µM	8 µM	32 µM	4 µM	16 µM	64 µM	128 µM	
CCC(C)CCC(=O)N[C@H](CC(N)=O)C(=O)N[C@H](Cc1ccc(O)cc1)C(=O)N[C@H](Cc1c[nH]c2ccccc12)C(=O)N[C@H](C)C(=O)N[C@@H](CCCN)C(=O)NCC(=O)N[C@H](CCCN)C(=O)N[C@@H](Cc1c[nH]c2ccccc12)C(=O)N[C@@H]1C(=O)N[C@@H]([C@@H](C)CC)C(=O)NCC(=O)N[C@@H](CO)C(=O)O[C@@H]1C (mixture of isomers)	8 µM	8 µM	8 µM	8 µM	32 µM	16 µM	32 µM	32 µM	64 µM	
GENTAMICIN										Activity [14]: inactive; Activity [15]: inactive
POLYMYXIN B									128 µM	Survival [16]: 100%; Survival [17]: 0%; LD50 [18]: 19.45 mg/kg; Activity [19]: Toxic; Activity [20]: Toxic; Activity [21]: Toxic; Activity [22]: Toxic; Activity [23]: Toxic; Activity [24]: Toxic; Activity [25]: Toxic; Activity [26]: Toxic; Activity [27]: Toxic; Activity [28]: Toxic; Activity [29]: Toxic
